US20140170096A1, “SUNSCREEN COMPOSITIONS” (priority 2011, published 2014)
Read-outs that look alike come from different tables or passages of the source.

Key:
[1] = system: viruses in water surrounding coral nubbins; assay: Viral abundance and viral enrichment in seawater surrounding coral nubbins (microcosm incubation); details: for Total viral abundances (TVN): seawater surrounding Acropora sp. nubbins, compound concentration per Table 2; for Viral enrichment factor (VEF): ratio of viral abundances, end vs start of incubation
Procedure: (§1) In situ tests were performed on nubbins (i.e., small branches of about 3-6 cm) of the stony coral Acropora sp. The nubbins were incubated in microcosms in presence of known concentrations of various ingredients potentially to be included in the composition of the eco-compatible sunscreen cream. In particular, coral nubbins (including more than 3000 polyps each) were collected by scuba divers from the same colony, located at a depth of about 3 m on the edge of the reef slope. Sampling of nubbins was performed by means of forceps. The nubbins were washed with seawater filtered onto 0.02-μm filters to eliminate viruses and prokaryotes. Each microcosm was prepared with a replicate set of nubbins (n=3) immersed in sterile polyethylene bags (Whirl-pack, Nasco, Fort Atkinson, Wis., USA) filled with 2 L filtered seawater. A total of 27 microcosms were prepared, in order to test 20 ingredients with the respective positive and negative controls. The microcosms were incubated at in situ temperature and light conditions for 72 hours.
(§2) After subsampling, sea water was transferred into sterile test tubes without use of fixatives and stored at −20° C. until laboratory analysis for quantification of viral and prokaryotic abundance. Once in laboratory, the water samples were immediately processed. Briefly, 200 uL sea water were diluted 1:10 with prefiltered MilliQ water, through 0.02-μm pore filters (Anodisc filter; 25-mm diameter, Al2O3; Whatman) and stained with 20 μL SYBR Green (stock solution diluted 1:20; Invitrogen, Carlsbad, Calif., USA). […] Slides were stored at −20° C. until microscopy analysis. Virus and prokaryote counts were obtained by epifluorescence microscopy (magnification, ×1000; Zeiss Axioplan) by examining at least 10 optical fields, that is, at least 200 cells or viruses per replicate. Viral (and prokaryotic) enrichment was calculated as ratio between virus (and prokaryote) abundances and virus (and prokaryote) abundance at the […] of the experiment.

coral reefs = assay: Summary of eco-compatibility of tested products with coral reefs; design: species or system Acropora sp.
Procedure: In order to select the most eco-compatible products for each group of compounds (i.e., base cream, fragrance, antioxidants and filters) the following criteria were selected:
1. coral bleaching level; 2. degree of release of symbiotic zooxanthellae; 3. zooxanthellae health conditions; 4. viral enrichment in the incubation medium with respect to controls.

[2] = system: stony coral Acropora sp. nubbins; assay: Quantification of coral bleaching by colorimetric (CMYK) analysis of digital photographs; format: in vivo; details: Acropora sp. (stony coral), in vivo, 72 h
Procedure: as §1
Photographs were taken under identical illumination with a Canon PowerShot A620 digital camera (Canon Inc., Tokyo, Japan) with a scale meter on the background. The photos were successively analyzed with a photo-editing software (Adobe Photoshop CS2) for color composition [cyan, magenta, yellow, black (CMYK)]. Levels of bleaching were measured as the difference between the corals' color at the beginning of the experiment and after treatments. Variations in the percentage of the different color components (CMYK) were analyzed with one-way analysis of variance (ANOVA). To rank the bleaching effect due to the compounds tested, a Bray-Curtis similarity matrix was prepared and a multidimensional scaling analysis of the shifts in CMYK color composition of treated corals was performed using Primer 5.0 software (Primer-E Ltd., Plymouth, UK). Bleaching rates were measured as the dissimilarity percentage in CMYK color composition between treated and control corals using the SIMPER tool of Primer 5.0 software (Primer-E Ltd).

[3] = system: prokaryotes in water surrounding coral nubbins; assay: Prokaryotic (bacterial) abundance and enrichment in seawater surrounding coral nubbins (microcosm incubation); details: seawater surrounding Acropora sp. nubbins
Procedure: as §1, §2

[4] = system: symbiotic zooxanthellae released from coral nubbins; assay: Zooxanthellae counts: zooxanthellae released in water surrounding coral nubbins; format: in vivo, Acropora sp.; details: for Healthy zooxanthellae released / Pale zooxanthellae released / Total zooxanthellae released / Transparent (i.e., dead) zooxanthellae released: end of incubation (72 h); for Percentage of healthy zooxanthellae released / Percentage of pale zooxanthellae released / Percentage of transparent zooxanthellae released: of total released, end of incubation
Procedure: as §1
Subsamples (50 mL) of seawater surrounding coral nubbins were collected at the start of the experiment (T0) and after 6, 12, 24, 36, 48 and 72 hours of incubation. The subsamples were fixed in 3% glutaraldehyde and then about 6.0 ml of each replicate was filtered through 2.0-μm polycarbonate filters. Filters were mounted on glass slides and zooxanthellae counted under epifluorescence microscopy (Zeiss Axioplan, Carl Zeiss Inc., Jena, Germany; ×400 and ×1000) using standard and UV light.

Structure (SMILES) | Total viral abundances (TVN) ([1]; incubation 0 (start)) [viruses ml^−1] | Total viral abundances (TVN) ([1]; incubation 12 h) [viruses ml^−1] | Viral enrichment factor (VEF) [1] | Eco-compatibility (coral reefs) | Number of color channels (of 4, CMYK) significantly altered [2] | Bacterial abundance (total bacterial number, TBN) ([3]; incubation 0 (start)) | Bacterial abundance (total bacterial number, TBN) ([3]; incubation 12 h) | Healthy zooxanthellae released [4] [cells ml^−1] | Pale zooxanthellae released [4] [cells ml^−1] | Total zooxanthellae released [4] [cells ml^−1] | Transparent (i.e., dead) zooxanthellae released [4] [cells ml^−1] | Percentage of healthy zooxanthellae released [4] [%] | Percentage of pale zooxanthellae released [4] [%] | Percentage of transparent zooxanthellae released [4] [%] | Eco-compatibility (coral reefs; criteria: bleaching level, zooxanthellae release, zooxanthellae health, viral enrichment, listed as Tocopheryl acetate) | Eco-compatibility (coral reefs; criteria: bleaching level, zooxanthellae release, zooxanthellae health, viral enrichment, listed as tocopheryl acetate) | Abundance of released zooxanthellae compared with the BLK system ([4]; statistical analysis, P<0.01)
CC1=C(/C=C/C(C)=C/C=C/C(C)=C/CO)C(C)(C)CCC1 [System D20, Retinol] | 2.47E+05 | 1.97E+06 | 8.09 | Compatible | 1 | 3.62E+04 | 1.71E+06 | 6.04E+02 | 7.18E+03 | 1.46E+04 | 6.84E+03 | 4 | 49 | 47 |  |  | 
CCCCCCCCCCCCCCCC(=O)OC/C=C(C)/C=C/C=C(C)/C=C/C1=C(C)CCCC1(C)C [System D19, retinyl palmitate] | 1.03E+05 | 1.98E+06 | 18.92 | Compatible | 1 | 3.62E+04 | 1.54E+06 | 1.07E+03 | 5.30E+03 | 1.23E+04 | 5.97E+03 | 9 | 43 | 48 |  |  | 
CC(=O)Oc1c(C)c(C)c2c(c1C)CCC(C)(CCC[C@H](C)CCC[C@H](C)CCCC(C)C)O2 (mixture of isomers) [System D17, DL-tocopherol-acetate] | 3.49E+05 | 2.83E+06 | 8.36 |  |  | 5.80E+04 | 1.42E+06 | 1.48E+03 | 1.88E+04 | 4.45E+04 | 2.42E+04 | 3 | 42 | 54 | Highly compatible | greater eco-compatibility | significantly higher
